According to US20070212717A1, “Method for Inhibiting Hepatitis C Virus Replication” (priority 2006, published 2007):

Experiments:
[1] = test system: PIK4CA transcript; assay: siRNA transfection of MP1 cells, real-time RT-PCR of PIK4CA transcript levels; format: cell-based, human
Text: In order to confirm that knockdown of PI4K inhibits HCV RNA replication, an independent method of suppressing the host gene using siRNA synthetic oligonucleotides, is implemented. […] The effect is specific in that transfection of non-specific oligonucleotides elicits no effect on HCV RNA replication. For the siRNA oligo transfection experiments, the MP1 cells (human hepatoma Huh-7 cell line harboring HCV RNA replicon with a luciferase reporter gene, as described above) are also used. Cells are maintained in DMEM High glucose (Wisent Inc.) supplemented with 10% fetal bovine serum (FBS; HyClone) containing neomycin (250 μg/ml) (Geneticin; Invitrogen). The assay medium lacks the neomycin. […]
(§1) The negative control corresponds to a no match NS5B sequence (AAGAGAGUCAGUCAGCUAAUCAC) [SEQ ID NO. […] Moreover, RNA is also isolated (using the 96-well Qiagen extraction method as described in example 1) from a replicate plate of transfected cells such that real-time RT-PCR quantifying HCV replicon copy number (as described in example 1) and cellular transcript RNA levels are performed. The method of quantifying host transcript RNA levels is similar to HCV RNA quantification except that the primers and the TaqMan probe are specific for the PIK4CA gene. […]
A standard curve for a relative quantification of PIK4CA transcript expression per μg total RNA is established for each transcript. […]

[2] = test system: HCV RNA replicon; assay: siRNA transfection of MP1 cells, HCV replicon luciferase assay; format: cell-based, hepatitis C virus; details: luciferase reporter or HCV RNA
Protocol: The “Luciferase assay system” from Promega is used to measure firefly luciferase (reporter) expression in the MP1 cell line in a 96-well format with the following protocol: • Prepare the Luciferase assay reagent by adding Luciferase assay buffer to the vial containing the lyophilized Luciferase assay substrate • Prepare 1× Luciferase cell culture lysis reagent by adding 4 volumes of water to 1 volume of 5× lysis buffer • Carefully remove the assay medium from cells • Rinse cells with 100 μl PBS buffer being careful to not dislodge attached cells • A black backing tape (Packard) is applied on bottom side of the 96-well black clear bottom plate. • Aliquot 30 μl/well of 1× Luciferase cell culture lysis reagent • Incubate at room temperature 10 minutes minimum • Aliquot 150 μl/well of Luciferase assay reagent and immediately measure the light produced on a TopCount NXT Instrument (Packard) (count time=2 s/well) […]
as §1, with “performed.” for “performed. The method of quantifying host transcript RNA levels is similar to HCV RNA quantification except that the primers and the TaqMan probe are specific for the PIK4CA gene.”

[3] = test system: hepatitis C virus; details: two day clinical trial; cited from earlier work

Row | Compound | reduction of PIK4CA transcript levels ([1]; 10 nM siRNA, RT-PCR, relative to DharmaFECT only) [%] | inhibition of HCV replicon levels [2] | effect on PIK4CA transcript levels ([1]; controls (siRNA 10 nM; BILN 2061 100 nM)) | viral loads in patients infected with the hepatitis C virus [3]
1 | PIK4CA siRNA #9: siRNA (si Genome duplex, Dharmacon) with defined sequence # 9 targeting a segment on the host transcript (GCAGAAATTTGGCCTGTTT; listed as DNA, further chemistry not given here) | ~25 | proportionally lower inhibition |  | 
2 | COc1ccc2c(O[C@@H]3C[C@H]4C(=O)N[C@]5(C(=O)O)C[C@H]5/C=C\CCCCC[C@H](NC(=O)OC5CCCC5)C(=O)N4C3)cc(-c3csc(NC(C)C)n3)nc2c1 [BILN2061] |  |  | no effect | effective in rapidly reducing viral loads
